Assay results from patent US12509734B2, “Systems and methods to assess microbiomes and treatments thereof” (priority 2013, dated 2025).

Test system: vaginal microbiota (PB-primer target groups)
Assay: PB-qPCR of acute BV and post-tinidazole vaginal lavages (Tables 3A, 3B)
Assay type: in vivo, human
Conditions: for Post-Tinidazole PB-qPCR Cells/sample: post-tinidazole vaginal lavage
Protocol: DNA extraction. Bacteria were lysed from vaginal lavages by adding sodium hydroxide and sodium dodecyl sulfate to final concentrations of 133 mM and 10% respectively, followed by vigorous reciprocal shaking at room temperature for 30 m. This lysate was then extracted with phenol:chloroform:isoamyl alcohol (25:24:1) then chloroform. The DNA was precipitated with an equal volume of 100% isopropanol, washed once with 70% isopropanol, and dissolved in 100 μl TE (10 mM Tris pH 8, 1 mM EDTA). DNA was stored at −20° C. until further use. […] DNA was amplified from extracts of reference bacterial species as single colonies, using QUICKEXTRACT™ Plant DNA 144 Extraction Solution (Epicentre, Madison, WI), modified by heating at 65° C. for 30 m, 95° C. for 1 m.
PCR primers, blockers, and amplification. Standard PCR was performed on ROBOCYCLER™ Gradient 96 (Stratagene). Real-time PCR was performed using Cepheid SMARTCYCLER™ or LIGHTCYCLER® 480 II (Roche Applied Sciences) thermal cyclers. The reaction utilized individually optimized amounts of each primer, 250 μM dNTPs (Invitrogen), 20 mM Tris pH 8.3, 3 mM MgCl2, 50 mM KCl, and Taq DNA polymerase, 5 units from either GeneChoice or New England Biolabs, 2.5 units GenScript Green Taq, or 1 unit of glycerol-free Taq DNA polymerase from APEX (Genesee Scientific) per 100 μl reaction volume, including either 0.073×SYBR® Green I Nucleic Acid Stain (FMC Bio Products) or 0.25 μl of 15 μM SYTO9 (Invitrogen) for qPCR reactions.
Calculation of titers and percent compositions. Cp values from reactions in LIGHTCYCLER® 480 II Real-Time PCR System (Roche Applied Science) were converted to molecules by comparison to Cp values of a standard curve from the same run derived from four to eight 10-fold serial dilutions of an amplicon quantified using the QUANT-IT® assay (Invitrogen). Molecules per μl were converted to cells per 5 ml lavage, assuming an average of five ribosomal genes per cell and proportioned to the ratio of the volume of the lavage used in the DNA prep and its final volume.
If the titer of the sample was below the limit of detection for the PB assay, nested PCR on a 24-cycle amplicon from a longer broad-spectrum 16S amplicon was performed (Tables 3A-3D). If the nested PCR was negative, the titer of the original sample was assumed to be 0; if the nested PCR was positive, the titer was reported as below the concentration of most dilute but still positive sample in each specific run. Amplicons were sequenced to verify that targeted species were amplified. Mixed amplicons were cloned into pGEM-T™ easy (Promega) and approximately 10 of the resultant clones sequenced. Percentages were calculated by dividing the titer from each PB by the sum of the titers from all the PB primers.
For Tables 3A-3D, titers were determined by qPCR using standard curves and converted to approximate cells/sample as described herein. Primers BU4&BU6 were used alone for the 16S-C&S but the extended set (Table 1) was used for qPCR. Species were identified by Sanger sequencing of either uncloned amplicons, in cases where a single species was dominant for the target group, or by sequencing small numbers of E. coli clones derived from the amplicons if mixed. In silico performance was determined using the RDP website; Target hits is the number of database entries of “good” quality >1200 bp within the target grouping; Total hits is the total number of these hits in the RDP database; Specificity=target/total hits; Total target number=number of RDP entries in the target group; Target coverage=target hits/target number. Notes: uc=uncultured; n.d.=none detected; n.a.=not applicable; t=no subuniversal primer; *=detected by nested PCR only, reporting limit of detection; [ ]=identity; ˜=novel species, closest hit listed. […] 1 min and ended with 72° C. 5 min; ***=excludes ˜⅓ of Clostridium XI; **** performance not determined, showing forward primer only. […]

Structure (SMILES): CCS(=O)(=O)CCn1c([N+](=O)[O-])cnc1C [tinidazole]
- Composition of post-tinidazole sample (PB-qPCR, FIG. 5B): dominated by L. iners
- Fold higher G. vaginalis in the BV sample compared to post-tinidazole (one patient, vaginal lavages): approximately 10^4 fold
- Fold lower titer of L. iners in the acute BV sample compared to post-tinidazole (one patient, vaginal lavages): approximately 20 fold
- Post-Tinidazole PB-qPCR Cells/sample (target Actinobacteridae): 5.7E+04 Cells/sample
- Post-Tinidazole PB-qPCR Cells/sample (target Bacteroidaceae/uc Prevotellaceae): 4.7E+06 Cells/sample
- Post-Tinidazole PB-qPCR Cells/sample (target Beta-Proteobacteria): 2.6E+04 Cells/sample
- Post-Tinidazole PB-qPCR Cells/sample (target Broad-spectrum (BU4L/BU6R)): 1.4E+10 Cells/sample
- Post-Tinidazole PB-qPCR Cells/sample (target Clostridiales Incertae Sedis XI): 0 Cells/sample
- Post-Tinidazole PB-qPCR Cells/sample (target Clostridiales Incertae Sedis XII): 5.5E+03 Cells/sample
- Post-Tinidazole PB-qPCR Cells/sample (target Coriobacteridae): 4.0E+04 Cells/sample
- Post-Tinidazole PB-qPCR Cells/sample (target Cross-family Clostridia): 3.9E+03 Cells/sample
- Post-Tinidazole PB-qPCR Cells/sample (target Enterobacteriales, Pasteurellales, Pseudomonadaceae): 2.9E+03 Cells/sample
- Post-Tinidazole PB-qPCR Cells/sample (target Fusobacterium): 2.9E+02 Cells/sample
- Post-Tinidazole PB-qPCR Cells/sample (target Lachnospiracea uc & incertae sedis, Clostridium IVa, Roseburia): 2.8E+05 Cells/sample
- Post-Tinidazole PB-qPCR Cells/sample (target Lactobacillaceae): 8.4E+09 Cells/sample
- Post-Tinidazole PB-qPCR Cells/sample (target Megasphaera/Dialister/Veillonella): 1.8E+03 Cells/sample
- Post-Tinidazole PB-qPCR Cells/sample (target Mobiluncus): 0 Cells/sample
- Post-Tinidazole PB-qPCR Cells/sample (target Mycoplasmatales): 8.3E+04 Cells/sample
- Post-Tinidazole PB-qPCR Cells/sample (target Peptostreptococcaceae): 0 Cells/sample
- Post-Tinidazole PB-qPCR Cells/sample (target Staphylococcus): 1.0E+05 Cells/sample
- Post-Tinidazole PB-qPCR Cells/sample (target Streptococcus): 8.1E+05 Cells/sample
- Post-Tinidazole PB-qPCR Cells/sample (target uc Clostridiales (BVAB2&3 subset)): 0 Cells/sample
